Laboratory results as given in patent US10149839B2, “Chemical compounds” (AstraZeneca AB, priority 2016, dated 2018).
≈ marks a conversion by molar mass, not a printed value.

Tests used:
[1] = Human plasma protein binding (equilibrium dialysis); assay type: in vitro ADME; settings: dialysis 18 hours
[2] = target: T1, Estrogen Receptor (ERα) in MCF-7 cells (Homo sapiens (Human), UniProt P03372); experiment: Western blotting assay, MCF-7 cells; assay type: cell-based; settings: compound 100 nM, 48 h, normalised to 100 nM fulvestrant (100%)
[3] = target: estrogen receptor (ERα) in CAMA-1 cells (Homo sapiens (Human), UniProt P03372); experiment: Western blotting assay, CAMA-1 cells; assay type: cell-based; settings: compound 100 nM, 48 h, normalised to 100 nM fulvestrant (100%)
[4] = Thermodynamic solubility (shake flask); assay type: physicochemical; settings: aqueous phosphate buffer, 25 °C, pH 7.4, aqueous buffer, thermodynamic from solid, aqueous phosphate buffer pH 7.4, 24 hours
[5] = target: T1, Estrogen Receptor (ERα) in MCF-7 cells; experiment: MCF-7 ER down-regulation assay (immuno-fluorescence); assay type: cell-based; settings: 18-22 hours incubation
physchem = settings: 1-octanol/aqueous buffer, pH 7.4

Sequence of estrogen receptor (ERα) in CAMA-1 cells (P03372 whole entry): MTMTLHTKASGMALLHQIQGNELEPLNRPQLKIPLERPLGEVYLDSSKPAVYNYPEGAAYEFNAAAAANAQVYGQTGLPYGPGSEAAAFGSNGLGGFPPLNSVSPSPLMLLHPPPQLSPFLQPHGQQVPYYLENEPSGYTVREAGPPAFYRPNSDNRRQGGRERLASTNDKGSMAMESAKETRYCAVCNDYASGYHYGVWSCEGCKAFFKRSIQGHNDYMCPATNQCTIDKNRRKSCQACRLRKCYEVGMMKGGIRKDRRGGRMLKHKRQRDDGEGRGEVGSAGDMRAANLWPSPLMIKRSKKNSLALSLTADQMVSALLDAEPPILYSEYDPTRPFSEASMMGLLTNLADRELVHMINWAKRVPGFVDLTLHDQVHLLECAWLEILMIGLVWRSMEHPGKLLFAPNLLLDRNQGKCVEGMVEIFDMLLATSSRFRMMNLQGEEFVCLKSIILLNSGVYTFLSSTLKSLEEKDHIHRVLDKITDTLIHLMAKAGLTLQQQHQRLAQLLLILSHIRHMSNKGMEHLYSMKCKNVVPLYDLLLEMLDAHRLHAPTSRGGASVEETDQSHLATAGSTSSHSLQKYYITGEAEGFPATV
T1 sequence (P03372 whole entry): as above

Compound	Human plasma protein binding (% free) [1] [% free]	MCF7 Western % ER deg vs Fv [2] [%]	CAMA1 Western % ER deg vs Fv [3] [%]	solubility at 24 h [4] [µM]	IC50 [5] [nM]	logD (physchem)
COc1cc(OCCNCCCF)ncc1[C@@H]1c2[nH]c3ccccc3c2C[C@@H](C)N1CC(C)(F)F [Example 42, N-(2-((5-((1R,3R)-2-(2,2-Difluoropropyl)-3-methyl-2,3,4,9-tetrahydro-1H-pyrido[3,4-b]indol-1-yl)-4-methoxypyridin-2-yl)oxy)ethyl)-3-fluoropropan-1-amine]	1.6	90	76	220 (≈ 108 µg/mL)	0.079	3.3
COc1cc(OCCNCCCF)ccc1[C@@H]1c2[nH]c3ccccc3c2C[C@@H](C)N1CC1(F)COC1 [Example 8, 3-fluoro-N-(2-(4-((1R,3R)-2-((3-fluorooxetan-3-yl)methyl)-3-methyl-2,3,4,9-tetrahydro-1H-pyrido[3,4-b]indol-1-yl)-3-methoxyphenoxy)ethyl)propan-1-amine]	–	77	38	–	–	–
C[C@@H]1Cc2c([nH]c3ccccc23)[C@@H](c2ccc(OCCNCCCF)cc2F)N1CC(F)F [Example 48, N-(2-(4-((1R,3R)-2-(2,2-difluoroethyl)-3-methyl-2,3,4,9-tetrahydro-1H-pyrido[3,4-b]indol-1-yl)-3-fluorophenoxy)ethyl)-3-fluoropropan-1-amine]	–	58	65	94 (≈ 43.6 µg/mL)	0.26	3.4
C[C@@H]1Cc2c([nH]c3ccccc23)[C@@H](c2c(F)cc(N(C)CCNCCCF)cc2F)N1CC(F)F [Example 49, N1-(4-((1R,3R)-2-(2,2-difluoroethyl)-3-methyl-2,3,4,9-tetrahydro-1H-pyrido[3,4-b]indol-1-yl)-3,5-difluorophenyl)-N2-(3-fluoropropyl)-N1-methylethane-1,2-diamine]	0.40	100	95	70 (≈ 34.6 µg/mL)	0.25	–
C[C@@H]1Cc2c([nH]c3ccccc23)[C@@H](c2c(F)cc(NCCNCCCF)cc2F)N1CC(F)F [Example 54, N1-(4-((1R,3R)-2-(2,2-difluoroethyl)-3-methyl-2,3,4,9-tetrahydro-1H-pyrido[3,4-b]indol-1-yl)-3,5-difluorophenyl)-N2-(3-fluoropropyl)ethane-1,2-diamine]	1.3	87	92	242 (≈ 116 µg/mL)	0.13	–

The next lines start with the values.

Human plasma protein binding (% free) [1] [% free]	MCF7 Western % ER deg vs Fv [2] [%]	CAMA1 Western % ER deg vs Fv [3] [%]	solubility at 24 h [4] [µM]	IC50 [5] [nM]	logD (physchem)	Compound
–	82	80	–	0.22	–	C[C@@H]1Cc2c([nH]c3ccccc23)[C@@H](c2c(F)cc(NCCNCCCF)cc2F)N1CC1(F)CC1 [Example 9, N^1-(3,5-difluoro-4-((1R,3R)-2-((1-fluorocyclopropyl)methyl)-3-methyl-2,3,4,9-tetrahydro-1H-pyrido[3,4-b]indol-1-yl)phenyl)-N^2-(3-fluoropropyl)ethane-1,2-diamine]
–	81	54	–	0.46	–	COc1cc(OCCNCCCF)ccc1[C@@H]1c2[nH]c3ccccc3c2C[C@@H](C)N1CC1(F)CC1 [Example 11, 3-fluoro-N-(2-(4-((1R,3R)-2-((1-fluorocyclopropyl)methyl)-3-methyl-2,3,4,9-tetrahydro-1H-pyrido[3,4-b]indol-1-yl)-3-methoxyphenoxy)ethyl)propan-1-amine]
–	74	66	184 (≈ 82 µg/mL)	0.4	3.3	C[C@@H]1Cc2c([nH]c3ccccc23)[C@@H](c2ccc(OCCNCCCF)cc2)N1CC(F)F [Example 56, N-(2-(4-((1R,3R)-2-(2,2-difluoroethyl)-3-methyl-2,3,4,9-tetrahydro-1H-pyrido[3,4-b]indol-1-yl)phenoxy)ethyl)-3-fluoropropan-1-amine]
